The experiment addresses T1, human GABA A α5β3γ2 receptor (Homo sapiens, UniProt P18507+P31644).
T1 construct: expressed in transfected cells; host or cells: HEK293 (transiently transfected), membranes
The experiment in a line: [3H]flumazenil competition binding to HEK293 cells expressing human GABA A receptors. To be noted: competition for [3H]flumazenil (0.5 nM for α5); HEK293 cells expressing human (transiently transfected) receptors; means of two determinations; read-out: hKi GABA Aα5. As for the experimental part: The affinity of compounds at GABA A receptor subtypes was measured by competition for [^3H]flumazenil (85 Ci/mmol; Roche) binding to HEK293 cells expressing rat (stably transfected) or human (transiently transfected) receptors of composition α1β3γ2, α2β3γ2, α3β3γ2 and α5β3γ2.
Cell pellets were suspended in Krebs-tris buffer (4.8 mM KCl, 1.2 mM CaCl2, 1.2 mM MgCl2, 120 mM NaCl, 15 mM Tris; pH 7.5; binding assay buffer), homogenized by polytron for ca. 20 sec on ice and centrifuged for 60 min at 4° C. (50000 g; Sorvall, rotor: SM24=20000 rpm). The cell pellets were resuspended in Krebs-tris buffer and homogenized by polytron for ca. 15 sec on ice. Protein was measured (Bradford method, Bio-Rad) and aliquots of 1 mL were prepared and stored at −80° C.
Radioligand binding assays were carried out in a volume of […] (96-well plates) which contained […] of cell membranes, [^3H]flumazenil at a concentration of 1 nM for α1, α2, α3 subunits and 0.5 nM for α5 subunits and the test compound in the range of […]. Nonspecific binding was defined by 10^−5 M diazepam and typically represented less than 5% of the total binding. Assays were incubated to equilibrium for 1 hour at 4° C. and harvested onto GF/C uni-filters (Packard) by filtration using a Packard harvester and washing with ice-cold wash buffer (50 mM Tris; pH 7.5). After drying, filter-retained radioactivity was detected by liquid scintillation counting. Ki values were calculated using Excel-Fit (Microsoft) and are the means of two determinations.
Representative test results, obtained by the above described assay measuring binding affinity to HEK293 cells expressing human (h) receptors, are shown in table 1 below.
Regarding `Cc1onc(C2CCOCC2)c1COc1ccc(C(=O)NC(C)C)cn1` [Example 37, N-Isopropyl-6-[(5-methyl-3-(tetrahydro-pyran-4-yl)-isoxazol-4-yl)methoxy]-nicotinamide], the Ki is 21.9 nM.

On to `Cc1onc(C2CCOCC2)c1COc1ccc(C(=O)N[C@@H](C)CO)cn1` [Example 38, N—((S)-2-Hydroxy-1-methyl-ethyl)-6-[(5-methyl-3-(tetrahydro-pyran-4-yl)-isoxazol-4-yl)methoxy]-nicotinamide], for which the Ki was determined as 41.6 nM.

Take `Cc1onc(OCC(C)C)c1COc1ccc(C(=O)NC(C)C)cn1` [Example 39, 6-((3-Isobutoxy-5-methyl-isoxazol-4-yl)methoxy)-N-isopropyl-nicotinamide]: the Ki was found to be 4.7 nM.

As for `Cc1onc(N2CCCC2)c1COc1ccc(C(=O)NC(C)C)cn1` [Example 40, N-Isopropyl-6-((5-methyl-3-pyrrolidin-1-yl-isoxazol-4-yl)methoxy)-nicotinamide], the Ki came out at 4 nM.

For the compound `Cc1onc(N2CCCC2)c1COc1ccc(C(=O)NC2CCOCC2)cn1` [Example 41, 6-((5-methyl-3-pyrrolidin-1-yl-isoxazol-4-yl)methoxy)-N-(tetrahydro-pyran-4-yl)-nicotinamide], the Ki amounted to 3.9 nM.

For `CCCCc1noc(C)c1CNc1ccc(C(=O)NC(C)C)cn1` [Example 42, 6-[((3-Butyl-5-methyl-isoxazol-4-yl)methyl)-amino]-N-isopropyl-nicotinamide], the Ki was 57.9 nM.

`CCCCc1noc(C)c1CNc1ccc(C(=O)NC(C)CO)cn1` (centres unmarked) [Example 43, 6-[((3-Butyl-5-methyl-isoxazol-4-yl)methyl)-amino]-N-(2-hydroxy-1-methyl-ethyl)-nicotinamide]: the Ki worked out at 77 nM.

Turning to `CCCCc1noc(C)c1CNc1ccc(C(=O)NC2CCOCC2)cn1` [Example 44, 6-[((3-Butyl-5-methyl-isoxazol-4-yl)methyl)-amino]-N-(tetrahydro-pyran-4-yl)-nicotinamide], the Ki was found to be 67.6 nM.

(Values after patent publication US8357703B2, “Pyridines” (Hoffmann-La Roche Inc., priority 2009, dated 2013).)
